One block for each substance: values may come before it. Square brackets hold non-standard residues; d marks the D form. βAla = NCCC(=O)O
Legend:
human NPM1 = human NPM1 (Homo sapiens, UniProt P06748); test: Surface plasmon resonance (SPR) binding of peptides to human NPM1; settings: human NPM1, FIG. 14
From the text: FIG. 14 depicts a table of the association rate, dissociation rate and the calculated equilibrium dissociation constant for 10 representative therapeutic peptides as measured by Surface Plasmon Resonance (SPR). Mean rates are derived from at least three different peptide concentrations at levels below saturation with human NPM1. Cell survival data are normalized to the negative control (a GFP fragment of similar size to the therapeutic peptides) and represent the mean of at least 3 separate experiments.
FIG. 15 depicts an on-off rate map. A graph of the off-rate (x-axis) and on-rate (y-axis) of 10 representative peptides from different sets of modified peptides. Diagonal dash-lines represent the equilibrium dissociation constant (KD) estimates the NPM1 binding affinity for each peptide based on the distance to the lines.
The 3D helical wheel projection scan predicted that 5 of 6 peptide residues (except for L185) with intermediate effects on post-ischemic cell survival cluster in a single surface domain (FIGS. 6 and 7). These surface residues are likely regulating the binding affinity Kd) between the therapeutic peptide and NPM1, the human target protein. Since binding affinity (Kd) between the peptide drug and NPMB1 partly predicts its efficacy, a high throughput, quantitative surface plasmon resonance (SPR) assay was developed.
SPR was measured for 10 novel polypeptides with select single or double mutations. Both the measured peptide “on” and “off” rates for binding human NPM1 markedly differed (FIG. 15). […] For most modified peptides, greater protection against ischemic stress positively correlated with a low Kd. […] Overall, SPR data combined with cell survival data adequately informs the selection of therapeutic peptides based on the quantifiable effects of R group modifications on these parameters. The combination of SPR binding affinity and cell survival data in vitro effectively rank orders therapeutic peptides for in vivo testing in animals.

[1] = test system: primary murine proximal tubule epithelial cells (PTEC); test: MTT cell survival assay of kidney cells after ischemic stress in vitro induced by metabolic inhibitors; assay type: cell-based; settings: for Cell survival data (ranking of peptides): normalized to negative control GFP fragment, FIG. 14; for Cytoprotective effects during ischemic stress in vitro: peptides 100 nM, metabolic inhibitors 60 min, recovery 6 hr, vs GFP negative control, FIG. 13; for Degree of cytoprotection during ischemic stress: alanine scan and pro-helical mutations; for Effect of the residue (single alanine substitution) on cytoprotection / cell survival after ischemic stress: alanine scanning of NPMB1, PTEC, FIG. 2
Method: FIG. 2 depicts an NPMB1 Alanine Scan. Relative kidney cell survival rate after 70 min ischemic stress in vitro induced by metabolic inhibitors in the presence of NPMB1 (control) vs. 19 different NPMBx polypeptides with single alanine substitutions (2 additional NPMB1 alanine residues were not substituted). Residue numbers (x axis) reflect Bax sequence that binds human NPM1; Survival data are normalized to NPMB1; post-ischemic kidney cell survival is shown in tertiles: (left-most group: 5-40% survival; middle-group: 55-70% and third group: 80-95%); n=3 separate experiments.
Relative kidney cell survival rate after 70 min ischemic stress in vitro induced by transient exposure to metabolic inhibitors in the presence of NPMB polypeptides (Agents 2, 5, 7, 14 that reflect alanine scan polypeptides A173, A187, A179, A176) vs. a non—specific polypeptide (GFP fragment). Survival data normalized to baseline (no stress); *P<0.01vs. baseline; t P<0.05 vs. stress; data represent 3 separate experiments; error bars represent mean+SD.
FIGS. 13A-13B depict the cytoprotective effects of select therapeutic peptides during ischemic stress in vitro. Primary murine proximal tubule epithelial cells (PTEC) were transiently exposed to metabolic inhibitors for 60 min and allowed to recover for 6 hr. to simulate ischemia in vivo; MTT assay estimated cell survival. “Control” (open bars); is a GFP fragment of similar size to the therapeutic peptides was used a negative control; NPMB1 (prototype) serves as a positive control. […] All peptides contained the nuclear localizing sequence (NLS) to enhance peptide delivery to the kidney, a beta linker and both carboxy-and amino terminal modifications to reduce susceptibility to protease digestion; data are mean+standard error; n=3 separate experiments. Figure discloses SEQ ID NOS 139, 134-135, 128, 127, and 138, respectively, in order of appearance.
Structure activity relationships of NPMB1 derivatives were determined through alanine scanning In these studies, 19 polypeptides were produced using methods shown in FIGS. 8-11 and their effect of kidney cell survival after ischemic stress was characterized using the MTT cell survival assay. Based on determination of relative kidney cell survival rate, polypeptides were grouped according to activity as shown in FIG. 2 (orange: 5-40% survival; blue 55-70% survival, or green 80-95% survival).

[2] = test system: in vivo mouse model of ischemic AKI; settings: J Am Soc Nephrol 30: 50-62, 2019; cited from earlier work
[3] = test system: primary murine proximal tubule epithelial cells (PTEC); settings: J Am Soc Nephrol 30: 50-62, 2019; cited from earlier work
[4] = molecular target: human nucleophosmin (NPM1) (Homo sapiens, UniProt P06748); settings: previously discovered by the applicant's team; cited from earlier work
human nucleophosmin (NPM1) (Homo sapiens, UniProt P06748), sequence (P06748 whole entry): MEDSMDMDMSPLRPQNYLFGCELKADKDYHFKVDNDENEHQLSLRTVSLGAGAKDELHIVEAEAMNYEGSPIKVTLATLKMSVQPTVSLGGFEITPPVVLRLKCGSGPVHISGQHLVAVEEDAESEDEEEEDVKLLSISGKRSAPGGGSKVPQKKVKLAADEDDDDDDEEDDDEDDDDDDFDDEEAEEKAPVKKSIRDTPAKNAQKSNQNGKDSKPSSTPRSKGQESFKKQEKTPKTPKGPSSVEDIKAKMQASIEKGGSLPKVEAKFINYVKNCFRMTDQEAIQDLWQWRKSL

[5] = test system: human nucleophosmin (NPM1); settings: in vivo (Wang 2019); cited from earlier work

human NPM1, sequence (P06748 whole entry, the tested form may be a part): as the sequence (P06748 whole entry) above

Substance: Ac-PKKKRKV-Bala-TATLFVAGVLTASLTIWKKMG-OMe [NPMB1-X-013]
Kd / NPM1 binding affinity in words (human NPM1): relatively low Kd values | Cell survival data (ranking of peptides) [1]: most effective | Cytoprotective effects during ischemic stress in vitro [1]: most robust protection

Substance: Ac-PKKKRKV-Bala-TVTIFVAGVLTASLTIWKKMG-OH [NPMB1, prototype peptide, positive control]
Kidney cell death in an in vivo mouse model of ischemic AKI [2]: inhibits kidney cell death | Kidney cell death in a cell-based assay [3]: inhibits kidney cell death | Binding to human nucleophosmin (NPM1) [4]: binds | NPM/Bax protein interaction [5]: competitively inhibits

Kd / NPM1 binding affinity in words (human NPM1): relatively low Kd
Substance: Ac-KKRRRKKRRRKKRRRK-Bala-TVTIFVAGVLTASLTIWKKMG-OH (Ac-KKRRRKKRRRKKRRRK[βAla]TVTIFVAGVLTASLTIWKKMG-OH; SMILES CC[C@H](C)[C@H](NC(=O)[C@@H](NC(=O)[C@H](CC(C)C)NC(=O)[C@H](CO)NC(=O)[C@H](C)NC(=O)[C@@H](NC(=O)[C@H](CC(C)C)NC(=O)[C@@H](NC(=O)CNC(=O)[C@H](C)NC(=O)[C@@H](NC(=O)[C@H](Cc1ccccc1)NC(=O)[C@@H](NC(=O)[C@@H](NC(=O)[C@@H](NC(=O)[C@@H](NC(=O)CCNC(=O)[C@H](CCCCN)NC(=O)[C@H](CCCNC(=N)N)NC(=O)[C@H](CCCNC(=N)N)NC(=O)[C@H](CCCNC(=N)N)NC(=O)[C@H](CCCCN)NC(=O)[C@H](CCCCN)NC(=O)[C@H](CCCNC(=N)N)NC(=O)[C@H](CCCNC(=N)N)NC(=O)[C@H](CCCNC(=N)N)NC(=O)[C@H](CCCCN)NC(=O)[C@H](CCCCN)NC(=O)[C@H](CCCNC(=N)N)NC(=O)[C@H](CCCNC(=N)N)NC(=O)[C@H](CCCNC(=N)N)NC(=O)[C@H](CCCCN)NC(=O)[C@H](CCCCN)NC(C)=O)[C@@H](C)O)C(C)C)[C@@H](C)O)[C@@H](C)CC)C(C)C)C(C)C)[C@@H](C)O)[C@@H](C)O)C(=O)N[C@@H](Cc1c[nH]c2ccccc12)C(=O)N[C@@H](CCCCN)C(=O)N[C@@H](CCCCN)C(=O)N[C@@H](CCSC)C(=O)NCC(=O)O) [NPMB1-I-010]

Substance: Ac-PKKKRKV-Bala-TVTIAVAAVLTASLTIWKKMG-OMe [NPMB1-X-008]
Kd / NPM1 binding affinity in words (human NPM1): relatively low Kd values

Substance: Ac-PKKKRKV-Bala-TVTLFVAGVLTASLTAWKKMG-OMe [NPMB1-X-002]
Kd / NPM1 binding affinity in words (human NPM1): relatively low Kd values

Substance: Ac-PKKKRKV-Bala-TVTLFVAGVLTASLTIWKKMG-OMe [NPMB1-V-001]
Kd / NPM1 binding affinity in words (human NPM1): relatively low NPM1 binding affinity | Degree of cytoprotection during ischemic stress [1]: highly effective | Cell survival data (ranking of peptides) [1]: most effective

Kd / NPM1 binding affinity in words (human NPM1): low Kd values (except NPMB1-V-003
Substance: Ac-PKKKRKV-Bala-TVTIFVAGVLTASLQIWKKMG-OMe [NPMB1-V-003]

Substance: Ac-PKKKRKV-Bala-TATIAVAGVLTASLTIWKKMG-OMe [NPMB1-X-012]
Kd / NPM1 binding affinity in words (human NPM1): relatively low Kd values | Cell survival data (ranking of peptides) [1]: most effective | Cytoprotective effects during ischemic stress in vitro [1]: most robust protection

Kd / NPM1 binding affinity in words (human NPM1): relatively low Kd
Substance: Ac-RREEERREEERREEEK-Bala-TVTIFVAGVLTASLTIWKKMG-OH (Ac-RREEERREEERREEEK[βAla]TVTIFVAGVLTASLTIWKKMG-OH; SMILES CC[C@H](C)[C@H](NC(=O)[C@@H](NC(=O)[C@H](CC(C)C)NC(=O)[C@H](CO)NC(=O)[C@H](C)NC(=O)[C@@H](NC(=O)[C@H](CC(C)C)NC(=O)[C@@H](NC(=O)CNC(=O)[C@H](C)NC(=O)[C@@H](NC(=O)[C@H](Cc1ccccc1)NC(=O)[C@@H](NC(=O)[C@@H](NC(=O)[C@@H](NC(=O)[C@@H](NC(=O)CCNC(=O)[C@H](CCCCN)NC(=O)[C@H](CCC(=O)O)NC(=O)[C@H](CCC(=O)O)NC(=O)[C@H](CCC(=O)O)NC(=O)[C@H](CCCNC(=N)N)NC(=O)[C@H](CCCNC(=N)N)NC(=O)[C@H](CCC(=O)O)NC(=O)[C@H](CCC(=O)O)NC(=O)[C@H](CCC(=O)O)NC(=O)[C@H](CCCNC(=N)N)NC(=O)[C@H](CCCNC(=N)N)NC(=O)[C@H](CCC(=O)O)NC(=O)[C@H](CCC(=O)O)NC(=O)[C@H](CCC(=O)O)NC(=O)[C@H](CCCNC(=N)N)NC(=O)[C@H](CCCNC(=N)N)NC(C)=O)[C@@H](C)O)C(C)C)[C@@H](C)O)[C@@H](C)CC)C(C)C)C(C)C)[C@@H](C)O)[C@@H](C)O)C(=O)N[C@@H](Cc1c[nH]c2ccccc12)C(=O)N[C@@H](CCCCN)C(=O)N[C@@H](CCCCN)C(=O)N[C@@H](CCSC)C(=O)NCC(=O)O) [NPMB1-I-011]

Substance: Ac-PKKKRKV-Bala-TVTIFVAGVLTASLTIWKAMG-OMe [NPMB1-III-017]
Effect of the residue (single alanine substitution) on cytoprotection / cell survival after ischemic stress [1]: critical for cytoprotection

Substance: Ac-PKKKRKV-Bala-TVTIFVAGVLTASLTAWKKMG-OMe [NPMB1-III-014]
Protection of primary kidney proximal tubule cells from ischemic stress (relative kidney cell survival rate) ([1]; 70 min ischemic stress, metabolic inhibitors, vs non-specific GFP fragment, normalized to baseline, FIG. 4): protect | Degree of cytoprotection during ischemic stress [1]: substantial protection | Effect of the residue (single alanine substitution) on cytoprotection / cell survival after ischemic stress [1]: minimal effect on cell survival

Substance: Ac-PKKKRKV-Bala-AVTIFVAGVLTASLTIWKKMG-OMe [NPMB1-III-001]
Effect of the residue (single alanine substitution) on cytoprotection / cell survival after ischemic stress [1]: moderate cytoprotective effects

Source: patent US20240309060A1, “POLYPEPTIDE BAX/NPM INHIBITORS” (TRUSTEES OF BOSTON UNIVERSITY, priority 2023, published 2024)
